Test results as given in PubChem BioAssay (NCI).
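Values below derive from 48-hour exposures of cells grown in 96-well plates, with endpoints linearly interpolated between the two concentrations bracketing the appropriate inhibition level. TGI: concentration producing complete growth inhibition.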

Key:
Assay in all cases: growth of human tumour cells (NCI), 48 h
DLD-1 colon = test system: DLD-1 colon
DMS 114 small cell lung = test system: DMS 114 small cell lung
DMS 273 small cell lung = test system: DMS 273 small cell lung
HOP-18 NSCLC = test system: HOP-18 NSCLC
HT29 colon = test system: HT29 colon
KM20L2 colon = test system: KM20L2 colon
LXFL 529 NSCLC = test system: LXFL 529 NSCLC
M19-MEL melanoma = test system: M19-MEL melanoma
OVCAR-5 ovarian = test system: OVCAR-5 ovarian
RPMI-8226 leukemia = test system: RPMI-8226 leukemia
RXF 393 renal = test system: RXF 393 renal
RXF-631 renal = test system: RXF-631 renal
SF-268 CNS = test system: SF-268 CNS
SF-295 CNS = test system: SF-295 CNS
SK-MEL-5 melanoma = test system: SK-MEL-5 melanoma
SK-OV-3 ovarian = test system: SK-OV-3 ovarian
SNB-78 CNS = test system: SNB-78 CNS
UO-31 renal = test system: UO-31 renal
XF 498 CNS = test system: XF 498 CNS

Row | SMILES | TGI (DLD-1 colon) [µM] | TGI (DMS 114 small cell lung) [µM] | TGI (DMS 273 small cell lung) [µM] | TGI (HOP-18 NSCLC) [µM] | TGI (HT29 colon) [µM] | TGI (KM20L2 colon) [µM] | TGI (LXFL 529 NSCLC) [µM] | TGI (M19-MEL melanoma) [µM] | TGI (OVCAR-5 ovarian) [µM] | TGI (RPMI-8226 leukemia) [µM] | TGI (RXF 393 renal) [µM] | TGI (RXF-631 renal) [µM] | TGI (SF-268 CNS) [µM] | TGI (SF-295 CNS) [µM] | TGI (SK-MEL-5 melanoma) [µM] | TGI (SK-OV-3 ovarian) [µM] | TGI (SNB-78 CNS) [µM] | TGI (UO-31 renal) [µM] | TGI (XF 498 CNS) [µM]
1 | NC(N)=NCCCS(=O)(=O)Nc1ccc(Nc2c3ccccc3nc3cc([N+](=O)[O-])ccc23)cc1 | > 93.4 | 28.8 | 37.2 | 58.7 | 55 | > 76.2 | 29.9 | 24.1 | > 74.1 | 66.6 | 67.2 | > 100 | 35.6 | 59 | 45.3 | 55.5 | > 63.5 | > 100 | 27.9
2 | C=CCSC1=N/C(=C\c2ccco2)C(=O)N1CC=C |  |  |  |  | > 100 |  |  |  | > 100 | > 100 | 65.7 |  | > 100 | > 100 | > 100 | > 100 |  | > 100 | 
3 | C/C(O)=C/c1nc2sc(C)c(C)c2c(=O)s1 |  |  |  |  | > 100 |  |  |  | > 100 | > 100 | > 100 |  | > 100 | > 100 | > 100 | > 100 |  | > 100 | 
4 | COC(=O)/C=C(\S/C(=C(/c1ccccc1)n1cc(C(=O)OC)c(C(=O)OC)n1)c1ccccc1)C(=O)OC |  |  |  |  | 18.6 |  |  |  | 32.7 | 26.9 | 31.4 |  | 32.8 | > 100 | 44.5 | > 100 |  | 5.25 | 
5 | CN(N=O)C(N)=NC(=O)c1ccccc1 |  |  |  |  | > 100 |  |  |  | > 100 | > 100 | > 100 |  | > 100 | > 100 | > 100 | > 100 |  | > 100 | 
6 | COC(=O)C1(Cc2ccccc2C)Cc2ccc(C)cc2C1=O (stereo not drawn) |  |  |  |  | 57.5 |  |  |  | > 100 | 32.2 | 96.4 |  | > 100 | > 100 | 32.1 | > 100 |  | > 100 | 
7 | Cc1oc2nc(N(C)C)n3c(C)nnc3c2c1C |  |  |  |  | > 100 |  |  |  | > 100 | > 100 | > 100 |  | > 100 | > 100 | > 100 | > 100 |  | > 100 | 
8 | COc1ccc(-n2c(-c3ccccc3)cc(-c3cccs3)c2-c2cccs2)cc1 |  |  |  |  | > 100 |  |  |  | > 100 | > 100 | > 100 |  | > 100 | > 100 | > 100 | > 100 |  | > 100 | 
9 | O=C1Nc2ccccc2/C1=C\c1c(Cl)[nH]c2ccccc12 |  |  |  |  | 0.598 |  |  |  | 5.05 | 3.34 | 3.55 |  | 7.72 | 0.956 | 2.04 | 1.2 |  | 6.84 | 
10 | CCOC(=O)c1c(C)n(-c2ccc(C)cc2)c2c1cc(O)c1[nH]c3c(c12)CCCC3 |  |  |  |  | 32.3 |  |  |  | > 100 | 24.8 | 27 |  | 55.2 | 65.2 | 24.3 | > 100 |  | 27.9 | 
11 | O=Cc1cc(O)ccc1Br |  |  |  |  | 67.5 |  |  |  | > 100 | > 36 | > 100 |  | > 100 | 99.5 | 98.2 | > 100 |  | > 81 | 
12 | O=C1NCC2=C1CCC1c3ccccc3CCN21 (stereo not drawn) | > 100 | > 100 | > 100 |  | > 100 | > 100 | > 100 | > 100 | > 100 |  | > 100 |  | > 100 | > 100 | > 100 | > 100 | > 100 | > 100 | > 100
13 | COc1cccc(/C=N/[N-]C(N)=O)c1[O-].[OH3+].[Zn+2] |  |  |  |  | > 100 | > 100 |  |  | > 100 | > 100 | > 100 |  | > 100 | > 100 | > 100 | > 100 |  | > 100 | 
14 | COC(=O)C(NC(=O)C12CCC(C)(C(=O)O1)C2(C)C)c1cc(C(C)(C)C)c(O)c(C(C)(C)C)c1 (stereo not drawn) |  |  |  |  | > 100 |  |  |  | > 100 | > 100 | > 100 |  | > 100 | > 100 | > 100 | > 100 |  | > 100 | 
15 | COc1cc(/C=C2\N=C(c3ccccc3)N(/N=C/c3cc4cc(C)ccc4nc3Cl)C2=O)ccc1O |  |  |  |  | > 100 |  |  |  | > 100 | 80.8 | > 100 |  | > 100 | > 100 | > 100 | > 100 |  | > 100 | 
